Test results as given in patent publication US6528286B1, “Mammalian cell culture process for producing glycoproteins” (Genentech, Inc., priority 1998, dated 2003).
“Also recorded” adds a separate entry of the source. Like-named read-outs stand apart in the source and are kept apart here.

Experiments:
[1] = system: CHO cells producing TNFR1-IgG1; format: cell-based, Chinese hamster; details: for SA content on day 9 / SA content on day 12 / Sialic Acid content on day 9 / Sialic Acid content on day 12: TNFR1-IgG1
Description: The Chinese hamster ovary (CHO)cell line used as the mammalian host cell line was derived from CHO DG44 cells. The gene encoding the soluble type 1 TNFR-IgG1 was introduced into CHO DG44 cells by transfection. This was accomplished using the calcium phosphate technique for introducing DNA into mammalian cells. Clones expressing the TNFR1-IgG1 were amplified in methotrexate yielding high expressing clones and subsequently adapted to serum free medium. These cells were under continuous selective pressure until transferred to nonselective medium for growth and expansion of the inoculum. To provide cells for TNFR1-IgG1 production cultures the cell population described above was expanded from the medium containing methotrexate by serial subcultivations in vessels of increasing volumes to growth medium containing no methotrexate. For these steps of the process the non selective growth medium was DMEM/HAM F-12 based formulation (see, for example, U.S. Pat. No. 5,122,469, herein incorporated by reference in its entirety) with modified concentrations of some components, such as glucose, amino acids, salts, sugar, vitamins glycine, hypoxanthine, and thymidine; recombinant human insulin, hydrolyzed peptone (Protease Peptone 2 or 3, Primatone HS or Primatone RL), a cell protective agent such as Pluronic F68 (pluronic polyol) or the equivalent; Gentamycin; and trace elements. The cultures were controlled at pH 7.2+/−0.4 by the use of CO2 gas (acid) and /or Na2CO3 (base). Temperature was controlled near 37° C. during the growth period. Dissolved oxygen was maintained above 5% of air saturation by direct sparging with air and/or oxygen gas. The growth phase for each culture was followed by a second phase or transition phase wherein culture parameters were changed from growth to production conditions. During this transition phase the temperature of the culture system was decreased, generally to about between 30 and 35° C. and usually about 33° C. Copper chloride was added to the culture medium. Product accumulated during the production phase was analyzed for sialic acid content. […] Sialic acid content was analyzed by the method of Warren, L. (1959) J. Biol. Chem. 234:1971-1975. or the method of Anumula, K. R. (1995) Anal. Biochem. 230:24-30. Glycoprotein production culture was inoculated at 0.2% packed cell volume (PCV). Cells were grown for about 2 days under optimal growth conditions (37° C., low osmolality). When reaching 1% PCV (after about 2 days) the culture conditions were changed from optimal growth to production conditions. This means that growth is slowed under these conditions. This change includes a temperature shift to 33° C. and the addition of a complex feed (a concentrated form of media components). Due to the toxic effects of copper additions higher than 0.2 mM under growth conditions copper additions in the production phase of the glycoprotein production process were investigated. In the process, maximal cell mass was reached after the fifth day in culture. Since significant desialyation occurs after the fifth day in culture and especially significant decrease after about the eighth day in culture (FIG. 1), copper additions of 0.5 and 1.0 mM at day 6 and day 8 of the culture were investigated (FIG. 6). Further experiments were run to test copper additions at other concentrations. 0.38 mM copper was added.

[2] = system: CHO cells producing TNFR1-IgG1; assay: Incubation of high cell concentration perfusion culture suspension in spinner flasks with CuCl2; format: cell-based, Chinese hamster; details: 1 mM and 5 mM CuCl2, 24 hours at 33° C.
Description: FIG. 2: Sialic acid (SA) content :of TNFR1-IgG1 after incubation of cell culture suspension taken from a perfusion culture at high cell concentration (6% packed cell volume, 77% viability at start of incubation) compared to starting sialic acid content before incubation. A sample of the perfusion culture was removed and incubated in spinner flasks containing 0, 1 mM and 5 mM CuCl2 for 24 hours at 33° C.
Sialic acid content was analyzed by the method of Warren, L. (1959) J. Biol. Chem. 234:1971-1975. or the method of Anumula, K. R. (1995) Anal. Biochem. 230:24-30.
To test the effect of CuCl2 on stabilization of the sialic acid content high cell concentration from a perfusion culture were incubated over night in spinner flasks with the addition 0, 1 and 5 mM CuCl2.

[3] = system: CHO cells producing TNFR1-IgG1; assay: Impact of CuCl2 on growth and viability of CHO cells under growth conditions; format: cell-based, Chinese hamster
Description: CuCl2 was added to the culture medium before inoculation with cells at concentrations from 0 to 3.2 mM. Inhibition of growth could be detected above 0.2 mM.
CuCl2 was added to the culture medium before inoculation with cells at concentrations from 0-3.2 mM. A toxic effect could be observed at concentrations above 0.2 mM. Concentrations above 0.4 mM lead to rapid cell death.
Since heavy metals such as copper are toxic the effects of CuCl2 concentrations from 0-5 mM on growth and viability of CHO cells at 37° C. and 33° C. incubation temperature producing a glycoprotein were investigated(FIGS. 3, 4 and 5). Toxic effects and growth inhibition could be detected above 0.2 mM CuCl2.

CHO-K1 cells = details: copper-supplemented culture medium; cited from earlier work
[4] = system: Cytosolic and membrane-associated sialidase I; details: partially purified extracts from rat liver or rat skeletal muscle; cited from earlier work
HeLa cell = HeLa cell culture medium; cited from earlier work
[5] = 0.5 and 1.0 mM CuCl2 added in production phase
[6] = copper 0.38 mM added on day 6, Table III
[7] = copper 0.5 mM added on day 6, Table II
[8] = copper 0.5 mM added on day 6, Table III
[9] = copper 0.5 mM added on day 8, Table II
[10] = copper 1.0 mM added on day 6, Table II
[11] = copper 1.0 mM added on day 8, Table II

In the case of `[Cl][Cu][Cl]` [CuCl2], the “Culture performance and productivity” value [1, 5] is reported as “good culture performance and productivity”, the “Sialic acid content in production cultures” value [1, 5] is reported as “stabilized” and the “SA content on day 9” value [1, 6] is reported as 5.5 mol/mol. For the same compound, the “SA content on day 12” value [1, 6] was 4.9 mol/mol, the “Sialic Acid content on day 9” value [1, 7] was 5.3 mol/mol and the “Sialic Acid content on day 12” value [1, 7] was 4.9 mol/mol. For the same compound, the “SA content on day 9” value [1, 8] was 5.3 mol/mol, the “SA content on day 12” value [1, 8] was 5.0 mol/mol and the “Sialic Acid content on day 9” value [1, 9] was 5.0 mol/mol. The “Sialic Acid content on day 12” value [1, 9] was 5.0 mol/mol, the “Sialic Acid content on day 9” value [1, 10] was 5.0 mol/mol and the “Sialic Acid content on day 12” value [1, 10] was 5.0 mol/mol. The “Sialic Acid content on day 9” value [1, 11] was 5.0 mol/mol, the “Sialic Acid content on day 12” value [1, 11] was 5.0 mol/mol and the “Product concentr. on day 9” value [1, 6] was 324 mg/L. For the same compound, the “Product concentr. on day 12” value [1, 6] was 518 mg/L, the “Product concentr. on day 9” value [1, 7] was 230 mg/L and the “Product concentr. on day 12” value [1, 7] was 304 mg/L. The “Product concentr. on day 9” value [1, 8] was 350 mg/L, the “Product concentr. on day 12” value [1, 8] was 545 mg/L and the “Product concentr. on day 9” value [1, 9] was 244 mg/L. The “Product concentr. on day 12” value [1, 9] was 417 mg/L, the “Product concentr. on day 9” value [1, 10] was 218 mg/L and the “Product concentr. on day 12” value [1, 10] was 286 mg/L. The “Product concentr. on day 9” value [1, 11] was 289 mg/L, the “Product concentr. on day 12” value [1, 11] was 371 mg/L and the “Stabilization of sialic acid content of TNFR1-IgG1” value [2] was “effective in stabilizing the sialic acid content in a dose dependent manner; also recorded: effective in stabilizing the SA content in a dose dependent manner”. The “Toxic effect at 37 versus 33° C. incubation temperature” value ([3]; 0-5 mM CuCl2) was “very similar for 37 °C and 33 °C”, the “CuCl2 concentration above which inhibition of growth could be detected” value ([3]; added before inoculation, 0 to 3.2 mM (0-5 mM)) was “above 0.2 mM” and the “Copper concentration above which cell death results” value ([3]; conditions normally associated with cell growth) was “above 0.4 mM”. For the same compound, the “CuCl2 concentration above which a toxic effect on viability could be observed” value ([3]; growth conditions, added before inoculation) was “above 0.2 mM”.
For `[Cu+2]` [Cu^2+], the LD50 (CHO-K1 cells) is listed as 126 µM, the “Copper ion concentration at which sialidase I was inhibited” value [4] is listed as “approximately 1 mM” and the “Copper ion concentrations that did not interfere with cell growth” value (HeLa cell) is listed as 1-100 μm.
